Test results: paper PMC3147164 (mBio, 2011)

Columns and labels:
HK_1190 = HK_1190 (Myxococcus xanthus, UniProt Q1DD24); conditions: excess ATP; kinase buffer pH 8.0, 10 mM MgCl2; labelled compound
HK_4262 = HK_4262 (Myxococcus xanthus, UniProt Q1D4I6); conditions: excess ATP; kinase buffer pH 8.0, 10 mM MgCl2; labelled compound
Chain of HK_4262 (Q1D4I6 477-702): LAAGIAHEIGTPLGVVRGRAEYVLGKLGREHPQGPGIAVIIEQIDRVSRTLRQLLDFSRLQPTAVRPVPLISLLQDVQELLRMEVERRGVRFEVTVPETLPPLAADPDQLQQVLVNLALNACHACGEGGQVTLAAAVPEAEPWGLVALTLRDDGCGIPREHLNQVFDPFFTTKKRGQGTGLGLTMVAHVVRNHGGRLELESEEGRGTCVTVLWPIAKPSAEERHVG

Chain of HK_1190 (Q1DD24 205-424): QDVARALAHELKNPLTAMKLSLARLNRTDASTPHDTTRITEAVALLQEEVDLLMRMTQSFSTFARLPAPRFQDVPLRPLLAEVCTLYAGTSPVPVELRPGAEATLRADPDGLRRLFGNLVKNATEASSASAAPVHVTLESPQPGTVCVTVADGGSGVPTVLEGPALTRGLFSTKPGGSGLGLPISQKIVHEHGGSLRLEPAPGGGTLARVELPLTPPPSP

Which “autophosphorylation, radiolabel gel assay” value (HK_1190) does the source give for `Nc1ncnc2c1ncn2[C@@H]1O[C@H](COP(=O)(O)OP(=O)(O)OP(=O)(O)O)[C@@H](O)[C@H]1O` [ATP] here?
Its value is “Both kinases were capable of autophosphorylation”.

What about the “autophosphorylation, radiolabel gel assay” value (HK_4262) of the same molecule?
The value was “Both kinases were capable of autophosphorylation”.
